Assay: mean ionic activity coefficient (dimensionless); mn = molality of the nth substance listed, in mol/kg
Details: 298.15 K, 101 kPa, Liquid, EMF measurements

[Cl-].[Na+] [sodium chloride] + CNC=O
Details | mean ionic activity coefficient
m1 = 0.0396 | 0.986
m1 = 0.052 | 0.985
m1 = 0.0642 | 0.983
m1 = 0.102 | 0.984
m1 = 0.1375 | 0.984
m1 = 0.1655 | 0.978
m1 = 0.1934 | 0.971

[Cl-].[Na+] [sodium chloride] + O
Details | mean ionic activity coefficient
m1 = 0.0496 | 0.819
m1 = 0.1857 | 0.733
m1 = 0.1979 | 0.733
m1 = 0.3096 | 0.707
m1 = 0.3711 | 0.689
m1 = 0.4571 | 0.686
m1 = 0.5916 | 0.675
m1 = 0.6871 | 0.659
m1 = 0.8318 | 0.663
m1 = 1.139 | 0.651
m1 = 1.212 | 0.659
m1 = 1.77 | 0.657
m1 = 1.87 | 0.67
m1 = 2.394 | 0.68
m1 = 2.624 | 0.702
m1 = 3.587 | 0.75
m1 = 3.811 | 0.78
m1 = 4.654 | 0.83
m1 = 5.142 | 0.891
m1 = 5.443 | 0.921
m1 = 5.693 | 0.929
m1 = 5.891 | 0.97
m1 = 6.032 | 0.985
m1 = 6.085 | 0.976
m1 = 6.1 | 0.997
